From ChEMBL document CHEMBL1124842, “Cyclohexane diester analogues of phorbol ester as potential activators of protein kinase C” (J Med Chem, 1990)

Experiment: Inhibition of [3H]PDBu binding to murine brain PKC (protein kinase C)
Design: species or system Mus musculus

Row | Structure (SMILES) | IC50 [µM]
1 | O=C(OC1CC[C@H](/C=C/CCO)CC1OC(=O)c1ccccc1)c1ccccc1 (some centres undefined) | > 1000
2 | O=C(OC1CC[C@H](/C=C/CO)CC1OC(=O)c1ccccc1)c1ccccc1 (some centres undefined) | > 1000
3 | CCCCCCCC(=O)OC1CC[C@H](/C=C/CO)CC1OC(=O)CCCCCCC (some centres undefined) | > 1000
4 | CCCCCCCC(=O)OC1CC[C@H](CO)CC1OC(=O)CCCCCCC (stereo in doubt; 20a) | > 1000
5 | CCCCCCCCCCCCCC(=O)O[C@@H]1[C@@H](C)[C@@]2(O)[C@@H](C=C(CO)C[C@]3(O)C(=O)C(C)=C[C@@H]23)[C@@H]2C(C)(C)[C@]12OC(C)=O [PHORBOL MYRISTATE ACETATE] | 0.01

The remaining lines, values ahead:

Row | IC50 [µM] | Structure (SMILES)
6 | 5 | CCCCCCCC(=O)OC[C@H](CO)OC(=O)CCCCCCC
7 | > 1000 | CCCCCCCC(=O)OC1CC[C@H](/C=C/CCO)CC1OC(=O)CCCCCCC (some centres undefined)
8 | > 1000 | O=C(OC1CC[C@H](CO)CC1OC(=O)c1ccccc1)c1ccccc1 (some centres undefined)
9 | 1000 | CCCCCCCC(=O)OC1CC[C@H](CO)CC1OC(=O)CCCCCCC (stereo in doubt; 20b)
